In patent US4521537A, “Spiro[2H-1,4-benzodioxepin-3(5H)4'-piperidine and -3'-pyrrolidine] compounds and their use as antihypertensive agents” (Hoechst-Roussel Pharmaceuticals Incorporated, priority 1984, dated 1985):
Where a name gives a salt, the structure may show the parent alone. Read-outs that look alike come from different tables or passages of the source.

Assays:
[1] = test system: spontaneous hypertensive rat; test: antihypertensive activity, spontaneous hypertensive rat (SHR) test, indirect tail cuff method; type: in vivo
Procedure: Compounds of this invention are useful as antihypertensive agents due to their ability to depress blood pressure in mammals. Antihypertensive activity is measured in the spontaneous hypertensive rat by the indirect tail cuff method described by A. Schwartz, Ed., Methods in Pharmacology, Vol. page 135, Appleton Century Crafts, New York (1971). […] The drop in blood pressure is measured on the third day following administration. The antihypertensive activity is expressed as mm Hg decrease in mean arterial blood pressure.

[2] = test system: mice; test: phenylquinone-induced writhing test in mice (PQW), analgesia; type: in vivo, male, CD-1 mice; conditions: Mus musculus; for change in vivo at 20 mg/kg: 20 mg/kg SC, read-out: PQW % (percent inhibition of writhing)
Procedure: Compounds of this invention produce analgesia when administered to mammals. A phenylquinone-induced writhing test in mice (PQW) was used as an assay to detect analgesia. The procedure employed was a modification of Siegmund, E., Cadmus, R. and Lu, G: Proc. Soc. Exptl. Bio. Med., 95: 729 (1957). 12.5 mg of phenyl-p-benzoquinone were dissolved in 5 ml of 95% ethanol and q.s. to 100 ml with distilled water and administered to mice (10 ml/kg, i.p.). This produces a characteristic "writhe" which is defined as an inward rotation of one or more feet with twisting and turning of the trunk, drawing in of the abdominal wall, lordosis and arching of the back.
A total of 28 male, CD-1 mice (18 to 30 grams) were employed for a time response. Animals recived food and water ad libitum. Drugs to be tested were prepared with distilled water and, if insoluble, one drop of a suitable surfactant was added.
Twenty animals (5/group) were administered the drug 15, 30, 45 and 60 minutes prior to phenylquinone injections. Control animals (2/group) received an equal amount of vehicle. After the administration of phenylquinone the mice were placed separately into one-liter beakers and 5 minutes were allowed to lapse. The mice were then observed for a period of 10 minutes and the number of writhes were recorded for each animal. The formula for computing percent inhibition is: [formula]
The time period with the greatest percent of inhibition is considered the peak time.
A dose range is run in the same fashion as a time response except 10 animals per group were tested at the peak time of drug activity. Fifty animals, 4 drug groups, and a vehicle control were employed. Animals were dosed and tested in a randomized manner. An estimated ED50 was calculated by a computer linear regression analysis.

`CCNC(=O)N1CCC2(CC1)OCc1ccccc1OC2C` (centres unmarked) [Example 71, N-Ethyl-2-methylspiro[2H-1,4-benzodioxepin-3(5H)4'-piperidine]-1'-carboxamide] was tested, and the “SHR mm Hg (decrease in mean arterial blood pressure)” value ([1]; Table III, 50 mg/kg PO) was -67 mm Hg and the change in vivo at 20 mg/kg ([2]; Table III) was -46%.

In the case of `CC1Oc2ccc(Cl)cc2COC12CCN(CC(O)COc1ccc(F)cc1)CC2` (centres unmarked) [Example 93, 7-Chloro-2-methyl-1'-[2-hydroxy-3-(4-fluorophenoxy)propyl]spiro[2H-1,4-benzodioxepin-3(5H)4'-piperidine]hydrochloride], the “SHR mm Hg (decrease in mean arterial blood pressure)” value ([1]; Table III, 50 mg/kg PO) is reported as -24 mm Hg and the change in vivo at 20 mg/kg ([2]; Table III) is reported as -88%.

In the case of `CC1Oc2ccccc2COC12CCN(CCc1ccc(N)cc1)CC2` (centres unmarked) [Example 57, 1'-[2-(4-Aminophenyl)ethyl]-2-methylspiro[2H-1,4-benzodioxepin-3(5H)4'-piperidine]maleate hydrate], the “SHR mm Hg (decrease in mean arterial blood pressure)” value ([1]; Table II, 50 mg/kg PO) is reported as -12 mm Hg and the change in vivo at 20 mg/kg ([2]; Table II) is reported as -99%.

For `CC1Oc2ccc(Cl)cc2COC12CCN(CCCCc1ccc(F)cc1)CC2` (centres unmarked) [Example 78, 1'-[4-(4-Fluorophenyl)butyl]-7-chloro-2-methylspiro[2H-1,4-benzodioxepin-3(5H)4'-piperidine]hydrochloride], the “SHR mm Hg (decrease in mean arterial blood pressure)” value ([1]; Table III, 50 mg/kg PO) was -61 mm Hg, the change in vivo at 20 mg/kg ([2]; Table III) was -68% and the ED50 ([2]; Table III, SC, printed in PQW % column, read-out: ED50 (PQW)) was 6.8 mg/kg.

`CC1Oc2ccc(Cl)cc2COC12CCN(CCCC(c1cccc(F)c1)c1cccc(F)c1)CC2` (centres unmarked) [Example 79, 1'-[4,4-Bis(3-fluorophenyl)butyl]-7-chloro-2-methylspiro[2H-1,4-benzodioxepin-3(5H)4'-piperidine]hydrochloride] was tested, and the “SHR mm Hg (decrease in mean arterial blood pressure)” value ([1]; Table III, 0.3 mg/kg PO) was -27 mm Hg and the change in vivo at 20 mg/kg ([2]; Table III) was -91%.

For `CC1Oc2ccc(Cl)cc2COC12CCN(CCCCC(c1ccc(F)cc1)c1ccc(F)cc1)CC2` (centres unmarked) [Example 86, 7-Chloro-2-methyl-1'-[5,5-bis(4-fluorophenyl)pentyl]-spiro[2H-1,4-benzodioxepin-3(5H)4'-piperidine]hydrochloride], the “SHR mm Hg (decrease in mean arterial blood pressure)” value ([1]; Table III, 50 mg/kg PO) was -42 mm Hg and the change in vivo at 20 mg/kg ([2]; Table III) was -25%.

With `CC1Oc2ccc(F)cc2COC12CCN(CCCC(c1cccc(F)c1)c1cccc(F)c1)CC2` (centres unmarked) [Example 76, 1'-[4,4-Bis(3-fluorophenyl)butyl]-7-fluoro-2-methylspiro[2H-1,4-benzodioxepin-3(5H)4'-piperidine]hydrochloride] the “SHR mm Hg (decrease in mean arterial blood pressure)” value ([1]; Table III, 0.3 mg/kg PO) was -31 mm Hg and the change in vivo at 20 mg/kg ([2]; Table III) was -38%.

`Cc1[nH]c2ccccc2c1CCCN1CCC2(CC1)OCc1ccccc1OC2C` (centres unmarked) [Example 53, 2-Methyl-1'-[3-(2-methylindol-3-yl)propyl]spiro[2H-1,4-benzodioxepin-3(5H)4'-piperidine]fumarate] was tested, and the “SHR mm Hg (decrease in mean arterial blood pressure)” value ([1]; Table II, 50 mg/kg PO) was -32 mm Hg and the change in vivo at 20 mg/kg ([2]; Table II) was -30%.
